In PubChem BioAssay (NCI):
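96-well plates; 48 h exposure; 5 concentrations. Endpoints by linear interpolation between flanking doses. Not reached: highest tested concentration assigned. GI50 is the concentration that inhibits growth by half. TGI is the concentration that stops growth completely.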

Columns and labels:
Assay in all cases: DTP human tumour cell line panel, 48 h
OVCAR-3 ovarian = tested on: OVCAR-3 ovarian
HOP-62 NSCLC = tested on: HOP-62 NSCLC
MDA-MB-231 breast = tested on: MDA-MB-231 breast
SK-MEL-2 melanoma = tested on: SK-MEL-2 melanoma
CAKI-1 renal = tested on: CAKI-1 renal
MOLT-4 leukemia = tested on: MOLT-4 leukemia
CCRF-CEM leukemia = tested on: CCRF-CEM leukemia
UACC-62 melanoma = tested on: UACC-62 melanoma
BT-549 breast = tested on: BT-549 breast
OVCAR-4 ovarian = tested on: OVCAR-4 ovarian
MDA-MB-435 = tested on: MDA-MB-435
NCI-H23 lung = tested on: NCI-H23 lung
MALME-3M melanoma = tested on: MALME-3M melanoma
DU-145 prostate = tested on: DU-145 prostate
A498 renal = tested on: A498 renal
SR leukemia = tested on: SR leukemia
SNB-75 CNS = tested on: SNB-75 CNS
OVCAR-5 ovarian = tested on: OVCAR-5 ovarian
COLO 205 colon = tested on: COLO 205 colon
RPMI-8226 leukemia = tested on: RPMI-8226 leukemia
ACHN renal = tested on: ACHN renal
IGROV1 ovarian = tested on: IGROV1 ovarian
HS 578T breast = tested on: HS 578T breast
OVCAR-8 ovarian = tested on: OVCAR-8 ovarian
UO-31 renal = tested on: UO-31 renal
MCF7 breast = tested on: MCF7 breast
HL-60(TB) leukemia = tested on: HL-60(TB) leukemia
K-562 leukemia = tested on: K-562 leukemia
786-0 renal = tested on: 786-0 renal
HCT-116 colon = tested on: HCT-116 colon
HCT-15 colon = tested on: HCT-15 colon
SW-620 colon = tested on: SW-620 colon
U251 CNS = tested on: U251 CNS
SF-268 CNS = tested on: SF-268 CNS
KM12 colon = tested on: KM12 colon
SN12C renal = tested on: SN12C renal
TK-10 renal = tested on: TK-10 renal
HT29 colon = tested on: HT29 colon
EKVX NSCLC = tested on: EKVX NSCLC
LOX IMVI melanoma = tested on: LOX IMVI melanoma
RXF 393 renal = tested on: RXF 393 renal
T-47D breast = tested on: T-47D breast
A549 NSCLC = tested on: A549 NSCLC
SF-295 CNS = tested on: SF-295 CNS
HCC-2998 colon = tested on: HCC-2998 colon
SK-MEL-5 melanoma = tested on: SK-MEL-5 melanoma
NCI/ADR-RES ovarian = tested on: NCI/ADR-RES ovarian
NCI-H522 lung = tested on: NCI-H522 lung
HOP-92 NSCLC = tested on: HOP-92 NSCLC
NCI-H460 lung = tested on: NCI-H460 lung
M14 melanoma = tested on: M14 melanoma
SK-MEL-28 melanoma = tested on: SK-MEL-28 melanoma
UACC-257 melanoma = tested on: UACC-257 melanoma
SNB-19 CNS = tested on: SNB-19 CNS
SK-OV-3 ovarian = tested on: SK-OV-3 ovarian
NCI-H226 lung = tested on: NCI-H226 lung
PC-3 prostate = tested on: PC-3 prostate
MDA-N = tested on: MDA-N

SMILES: CCN(CC)C(=S)SS(=O)(=O)c1ccc(N)cc1
- GI50 (OVCAR-3 ovarian): > 100 µM
- TGI (OVCAR-3 ovarian): > 100 µM
- TGI (HOP-62 NSCLC): > 100 µM
- GI50 (MDA-MB-231 breast): > 100 µM
- TGI (MDA-MB-231 breast): > 100 µM
- TGI (SK-MEL-2 melanoma): > 100 µM
- TGI (CAKI-1 renal): > 90.2 µM
- TGI (MOLT-4 leukemia): > 100 µM
- GI50 (CCRF-CEM leukemia): > 100 µM
- TGI (CCRF-CEM leukemia): > 100 µM
- TGI (UACC-62 melanoma): > 100 µM
- GI50 (BT-549 breast): > 100 µM
- TGI (BT-549 breast): > 100 µM
- GI50 (OVCAR-4 ovarian): > 100 µM
- TGI (OVCAR-4 ovarian): > 100 µM
- GI50 (MDA-MB-435): > 100 µM
- TGI (MDA-MB-435): > 100 µM
- TGI (NCI-H23 lung): > 100 µM
- GI50 (MALME-3M melanoma): 46.2 µM
- TGI (MALME-3M melanoma): > 100 µM
- GI50 (DU-145 prostate): > 100 µM
- TGI (DU-145 prostate): > 100 µM
- TGI (A498 renal): > 94.2 µM
- TGI (SR leukemia): > 100 µM
- GI50 (SNB-75 CNS): 48.5 µM
- TGI (SNB-75 CNS): > 100 µM
- TGI (OVCAR-5 ovarian): > 100 µM
- GI50 (COLO 205 colon): > 100 µM
- TGI (COLO 205 colon): > 100 µM
- TGI (RPMI-8226 leukemia): > 100 µM
- TGI (ACHN renal): > 100 µM
- TGI (IGROV1 ovarian): > 100 µM
- TGI (HS 578T breast): > 100 µM
- GI50 (OVCAR-8 ovarian): > 100 µM
- TGI (OVCAR-8 ovarian): > 100 µM
- TGI (UO-31 renal): > 100 µM
- TGI (MCF7 breast): > 100 µM
- GI50 (HL-60(TB) leukemia): > 100 µM
- TGI (HL-60(TB) leukemia): > 100 µM
- TGI (K-562 leukemia): > 100 µM
- TGI (786-0 renal): > 100 µM
- GI50 (HCT-116 colon): > 100 µM
- TGI (HCT-116 colon): > 100 µM
- GI50 (HCT-15 colon): > 100 µM
- TGI (HCT-15 colon): > 100 µM
- GI50 (SW-620 colon): > 100 µM
- TGI (SW-620 colon): > 100 µM
- GI50 (U251 CNS): > 100 µM
- TGI (U251 CNS): > 100 µM
- GI50 (SF-268 CNS): > 100 µM
- TGI (SF-268 CNS): > 100 µM
- TGI (KM12 colon): > 100 µM
- GI50 (SN12C renal): > 100 µM
- TGI (SN12C renal): > 100 µM
- GI50 (TK-10 renal): > 100 µM
- TGI (TK-10 renal): > 100 µM
- TGI (HT29 colon): > 100 µM
- TGI (EKVX NSCLC): > 100 µM
- GI50 (LOX IMVI melanoma): > 100 µM
- TGI (LOX IMVI melanoma): > 100 µM
- TGI (RXF 393 renal): > 100 µM
- TGI (T-47D breast): > 100 µM
- TGI (A549 NSCLC): > 100 µM
- GI50 (SF-295 CNS): > 100 µM
- TGI (SF-295 CNS): > 100 µM
- TGI (HCC-2998 colon): > 100 µM
- TGI (SK-MEL-5 melanoma): > 100 µM
- GI50 (NCI/ADR-RES ovarian): > 100 µM
- TGI (NCI/ADR-RES ovarian): > 100 µM
- TGI (NCI-H522 lung): > 26.6 µM
- TGI (HOP-92 NSCLC): > 100 µM
- TGI (NCI-H460 lung): > 100 µM
- TGI (M14 melanoma): > 100 µM
- GI50 (SK-MEL-28 melanoma): > 100 µM
- TGI (SK-MEL-28 melanoma): > 100 µM
- GI50 (UACC-257 melanoma): > 100 µM
- TGI (UACC-257 melanoma): > 100 µM
- TGI (SNB-19 CNS): > 100 µM
- TGI (SK-OV-3 ovarian): > 100 µM
- GI50 (NCI-H226 lung): 99.2 µM
- TGI (NCI-H226 lung): > 100 µM
- GI50 (PC-3 prostate): 90.8 µM
- TGI (PC-3 prostate): > 100 µM
- TGI (MDA-N): > 100 µM
